{
  "source": "patent US11432549B2",
  "about": "“Carbamoyl triazolinone based herbicide combinations and method of use” (Arysta LifeScience Corporation, priority 2009, dated 2022)",
  "key": {"[1]": {"test_system": "Kentucky Bluegrass Seedling", "details": "in vivo", "experimental": "(§1) Containers were watered as needed based on species and water usage. The greenhouse was heated to keep temperatures above 50° F. (10° C.) and ventilated as needed to keep temperatures below 100° F. (38° C.). Typical daytime temperatures in the greenhouse were 80-90° F. (27-32° C.) and nighttime temperatures were between 50-60° F. (10-16° C.). The soil employed was Promix BX potting soil. Overall moisture conditions were normal and the closest weather station was on-site. Conditions and equipment employed in this Example are tabulated below in Tables 5-1 and 5-2.\n(§2) All containers were moved outdoors from the greenhouse and arranged in blocks by treatment for the herbicide applications. A single spray application was applied to each block containing four repetitions of each species for each treatment. Plants were then immediately returned to the greenhouse and irrigated with approximately ¼″ water 1-3 hrs after treatment with a hose end sprayer. Only the Poa plants were trimmed with scissors two days prior to treatment at a height of approximately 3 inches.\n[…] Tall fescue was seeded into the crabgrass pots. St. Augustine plants (Floratam and Saphire) were shipped from Port St. Lucie, Fla. Only two replicates of Saphire St. Augustine grass were used due to plant availability.\nReferring to FIGS. 2A-B, 3A-C, 4A-C, and 5A-D, all ratings of injury or bleaching are based on a scale from 1 to 9. […]"}, "[2]": {"test_system": "Ipomoea gradifolia (IAOGR)", "assay": "Ex 4 pre-emergence, visual % damage", "format": "in vivo", "details": "kg/ha or L/ha: Amicarbazone 1.50, Gesapax 5.00, Karmex 5.00, Provence 0.20, Sencor 3.50, alone", "experimental": "DINAMIC® (amicarbazone) in combination of various herbicides listed in Table 4-1 were tested for herbicidal activity.\nThe herbicidal effect was observed by comparing the extent of Ipomoea gradifolia (IAOGR) treated with the compounds against that occurring in similar non-treated control. Herbicidal effect was visually assessed and recorded at 14, 23, 36, 49, 65 and 77 days after treatment (DAT). Damage by the herbicidal compositions was evaluated with reference to a scale of 0% to 100% in comparison with untreated control. 0% means no damage and 100% means complete destruction of the plants. […] The theoretical herbicidal effect index were calculated based on Colby and the values were indicated in bracket ( ). […] Some of the observed herbicidal effects were the same as the theoretical hervicidal effects, which indicate additive effects. The underlined values in the table indicate that the observed weed killing is greater than calculated from the Colby formula and therefore indicates a synergistic weed killing effect or activity."}, "[3]": {"test_system": "Green Foxtail", "assay": "Ex 5/7 greenhouse spray, bleaching/injury ratings", "format": "in vivo", "experimental": "as §1, §2\n(§3) Referring to FIGS. 2A-B, 3A-C, 4A-C, and 5A-D, all ratings of injury or bleaching are based on a scale from 1 to 9. […] Any bleaching measurement 4 and above was considered unacceptable for desirable turf species. In injury measurements, 1 indicates no injury while 9 indicates a dead plant. Any injury measurement 4 and above was considered unacceptable for desirable turf species). Density correlates with percent cover where 1 indicates no grass while 9 indicates a full pot.\n(§4) Replications employed include 4, Untreated treatments: 1, Design: Randomized Complete Block, Treatment units: US standard, Treated plot size Width: 4 feet, Treated plot size Length: 4 feet, Application volume: 50 gal/ac, Mix size: 0.5562 liters, Mix overage: 100%, Format definitions: G-All7.DEF, G-All7.FRM.\n(§5) In evaluating synergism, the data from Example 5 above were converted to % of control. This was done based on the data provided on a 1-9 scale detailed in Example 5. Expected values were computed from the % of control data by the formula for expected control=[…], where A is the % of control value for herbicide A alone and B is the % of control value for herbicide B alone."}, "[4]": {"test_system": "Mustard (Sinapsis sp.)", "assay": "Ex 5/7 greenhouse spray, bleaching/injury ratings", "format": "in vivo", "experimental": "as §1, §2, §3, §4, §5"}, "[5]": {"details": "rating 1, 0.022 lbs ai/A (0.5 oz/A)"}, "[6]": {"details": "rating 1, 0.13 lbs ai/A (3 oz/A)"}, "[7]": {"details": "rating 2, 0.022 lbs ai/A (0.5 oz/A)"}, "[8]": {"details": "rating 2, 0.13 lbs ai/A (3 oz/A)"}, "[9]": {"details": "rating 3, 0.022 lbs ai/A (0.5 oz/A)"}, "[10]": {"details": "rating 3, 0.13 lbs ai/A (3 oz/A)"}, "[11]": {"details": "rating 4, 0.022 lbs ai/A (0.5 oz/A)"}, "[12]": {"details": "rating 4, 0.13 lbs ai/A (3 oz/A)"}, "[13]": {"details": "rating 5, 0.022 lbs ai/A (0.5 oz/A)"}, "[14]": {"details": "rating 5, 0.13 lbs ai/A (3 oz/A)"}, "[15]": {"details": "6 DA-A, Trt 2/4/6: Amicarbazone 0.0219, Tenacity 0.125 lb ai/a"}, "[16]": {"details": "6 DA-A, Trt 3/5/9: Amicarbazone 0.131, Tenacity 0.25 lb ai/a"}, "[17]": {"details": "7 DA-A, Trt 2/4/6: Amicarbazone 0.0219, Tenacity 0.125 lb ai/a"}, "[18]": {"details": "7 DA-A, Trt 3/5/9: Amicarbazone 0.131, Tenacity 0.25 lb ai/a"}},
  "data": [
    {"compound": "CC(C)c1nn(C(=O)NC(C)(C)C)c(=O)n1N", "note": "[Amicarbazone, 4-amino-5-isopropyl-2-(tert-butyl-aminocarbonyl)-2,4-dihydro-3H-1,2,4-triazol-3-one]", "values": [
      {"measurement": "injury to seedlings", "setting": "[1]", "value": "injured Kentucky Bluegrass seedlings"},
      {"measurement": "percentage control", "setting": "[2]; 14 DAT", "value": 98, "unit": "%"},
      {"measurement": "percentage control", "setting": "[2]; 23 DAT", "value": 98, "unit": "%"},
      {"measurement": "percentage control", "setting": "[2]; 36 DAT", "value": 98, "unit": "%"},
      {"measurement": "percentage control", "setting": "[2]; 49 DAT", "value": 98, "unit": "%"},
      {"measurement": "percentage control", "setting": "[2]; 65 DAT", "value": 96, "unit": "%"},
      {"measurement": "percentage control", "setting": "[2]; 77 DAT", "value": 97, "unit": "%"},
      {"measurement": "Green Foxtail bleaching", "setting": "[3]; [5]", "value": "100 % of control"},
      {"measurement": "Green Foxtail injury", "setting": "[3]; [5]", "value": 97},
      {"measurement": "Green Foxtail bleaching", "setting": "[3]; [6]", "value": "100 % of control"},
      {"measurement": "Green Foxtail injury", "setting": "[3]; [6]", "value": 67},
      {"measurement": "Green Foxtail bleaching", "setting": "[3]; [7]", "value": "104 % of control"},
      {"measurement": "Green Foxtail injury", "setting": "[3]; [7]", "value": 94},
      {"measurement": "Green Foxtail bleaching", "setting": "[3]; [8]", "value": "104 % of control"},
      {"measurement": "Green Foxtail injury", "setting": "[3]; [8]", "value": 69},
      {"measurement": "Green Foxtail bleaching", "setting": "[3]; [9]", "value": "104 % of control"},
      {"measurement": "Green Foxtail injury", "setting": "[3]; [9]", "value": 97},
      {"measurement": "Green Foxtail bleaching", "setting": "[3]; [10]", "value": "104 % of control"},
      {"measurement": "Green Foxtail injury", "setting": "[3]; [10]", "value": 81},
      {"measurement": "Green Foxtail bleaching", "setting": "[3]; [11]", "value": "104 % of control"},
      {"measurement": "Green Foxtail injury", "setting": "[3]; [11]", "value": 97},
      {"measurement": "Green Foxtail bleaching", "setting": "[3]; [12]", "value": "104 % of control"},
      {"measurement": "Green Foxtail injury", "setting": "[3]; [12]", "value": 84},
      {"measurement": "Green Foxtail bleaching", "setting": "[3]; [13]", "value": "160 % of control"},
      {"measurement": "Green Foxtail injury", "setting": "[3]; [13]", "value": 102},
      {"measurement": "Green Foxtail bleaching", "setting": "[3]; [14]", "value": "106 % of control"},
      {"measurement": "Green Foxtail injury", "setting": "[3]; [14]", "value": 77},
      {"measurement": "Green Foxtail injury", "setting": "[3]; rating 6, 0.022 lbs ai/A (0.5 oz/A)", "value": 97},
      {"measurement": "Green Foxtail injury", "setting": "[3]; rating 6, 0.13 lbs ai/A (3 oz/A)", "value": 73},
      {"measurement": "Green Foxtail injury", "setting": "[3]; rating 7, 0.022 lbs ai/A (0.5 oz/A)", "value": 268},
      {"measurement": "Green Foxtail injury", "setting": "[3]; rating 7, 0.13 lbs ai/A (3 oz/A)", "value": 144},
      {"measurement": "Injury (1-9 scale)", "setting": "[4]; 3 DA-A, Trt 2/4/6: Amicarbazone 0.0219, Tenacity 0.125 lb ai/a", "value": 2.8, "unit": "b"},
      {"measurement": "Injury (1-9 scale)", "setting": "[4]; 3 DA-A, Trt 3/5/9: Amicarbazone 0.131, Tenacity 0.25 lb ai/a", "value": 6.8, "unit": "a"},
      {"measurement": "Bleaching (1-9 scale)", "setting": "[4]; [15]", "value": 2.0, "unit": "bc"},
      {"measurement": "Injury (1-9 scale)", "setting": "[4]; [15]", "value": 2.8, "unit": "c"},
      {"measurement": "Bleaching (1-9 scale)", "setting": "[4]; [16]", "value": 1.3, "unit": "c"},
      {"measurement": "Injury (1-9 scale)", "setting": "[4]; [16]", "value": 6.5, "unit": "ab"},
      {"measurement": "Bleaching (1-9 scale)", "setting": "[4]; [17]", "value": 2.0, "unit": "bc"},
      {"measurement": "Injury (1-9 scale)", "setting": "[4]; [17]", "value": 4.3, "unit": "c"},
      {"measurement": "Bleaching (1-9 scale)", "setting": "[4]; [18]", "value": 2.0, "unit": "bc"},
      {"measurement": "Injury (1-9 scale)", "setting": "[4]; [18]", "value": 7.0, "unit": "b"},
      {"measurement": "Injury (1-9 scale)", "setting": "[4]; 10 DA-A, Trt 2/4/6: Amicarbazone 0.0219, Tenacity 0.125 lb ai/a", "value": 6.0, "unit": "b"},
      {"measurement": "Injury (1-9 scale)", "setting": "[4]; 10 DA-A, Trt 3/5/9: Amicarbazone 0.131, Tenacity 0.25 lb ai/a", "value": 8.8, "unit": "a"},
      {"measurement": "Injury (1-9 scale)", "setting": "[4]; 14 DA-A, Trt 2/4/6: Amicarbazone 0.0219, Tenacity 0.125 lb ai/a", "value": 5.8, "unit": "b"},
      {"measurement": "Injury (1-9 scale)", "setting": "[4]; 14 DA-A, Trt 3/5/9: Amicarbazone 0.131, Tenacity 0.25 lb ai/a", "value": 8.8, "unit": "a"},
      {"measurement": "Mustard bleaching", "setting": "[4]; [5]", "value": "119 % of control"},
      {"measurement": "Mustard injury", "setting": "[4]; [5]", "value": "78 % of control"},
      {"measurement": "Mustard bleaching", "setting": "[4]; [6]", "value": "132 % of control"},
      {"measurement": "Mustard injury", "setting": "[4]; [6]", "value": "28 % of control"},
      {"measurement": "Mustard bleaching", "setting": "[4]; [7]", "value": "94 % of control"},
      {"measurement": "Mustard injury", "setting": "[4]; [7]", "value": "78 % of control"},
      {"measurement": "Mustard bleaching", "setting": "[4]; [8]", "value": "94 % of control"},
      {"measurement": "Mustard injury", "setting": "[4]; [8]", "value": "31 % of control"},
      {"measurement": "Mustard injury", "setting": "[4]; [9]", "value": "61 % of control"},
      {"measurement": "Mustard injury", "setting": "[4]; [10]", "value": "26 % of control"},
      {"measurement": "Mustard injury", "setting": "[4]; [11]", "value": "39 % of control"},
      {"measurement": "Mustard injury", "setting": "[4]; [12]", "value": "3 % of control"},
      {"measurement": "Mustard injury", "setting": "[4]; [13]", "value": "42 % of control"},
      {"measurement": "Mustard injury", "setting": "[4]; [14]", "value": "3 % of control"}
    ]}
  ]
}
